Measurements published in patent US10881110B2, “Herbicidal compositions comprising isoxazolo[5,4-b]pyridines” (BASF SE, priority 2014, dated 2021).
Read-outs that look alike come from different tables or passages of the source.

Experiments:
Assay in all cases: greenhouse post-emergence herbicidal test
AMBEL = assay type: in vivo, Ambrosia artemisiifolia; design: key: rating on a scale from 0 to 100
Method in brief: (§1)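 Plants were grown in loamy sand (approx. 4.6% humus, 69.9% sand) to 1–15 cm and sprayed post-emergence with actives suspended or emulsified in water, from a 10% by weight emulsion concentrate. Kept at 10-25° C or 20-35° C by species, damage was scored 0–100 at 20 days.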

CHEAL = assay type: in vivo, Chenopodium album
Method in brief: as §1

ECHCG = assay type: in vivo, Echinochloa crus-galli; design: key to herbicidal activity against ECHCG found / herbicidal activity against ECHCH found: scale 0 to 100; conditions: post emergence
Method in brief: as §1

ERICA = assay type: in vivo, Conyza canadensis; conditions: Erigeron canadensis, post-emergence, 480 h, post emergence, read-out: herbicidal activity against ERICA found
Method in brief: as §1

[1] = a.i. g/ha: I.1 20.8, B.192 62.5, 20 days after treatment
[2] = a.i. g/ha: I.1 20.8, B.67 62.5, 20 days after treatment

O=C(O)c1cc(C2CC2)nc2onc(C3CC3)c12 [I.1]
herbicidal activity against AMBEL found (AMBEL; 31.25 g/ha a.i.): 85 | herbicidal activity against AMBEL found (AMBEL; I.1 alone 125 g/ha a.i.): 65 | herbicidal activity against AMBEL found (AMBEL; [1]): 30% | herbicidal activity against AMBEL found (AMBEL; application rate a.i.: I.1 31.25 g/ha, B.100 (isoxaflutole) 12.5 g/ha, alone or as mixture (composition 1.100)): 90 | herbicidal activity against AMBEL found (AMBEL; application rate a.i.: I.1 31.25 g/ha, B.139 (pyroxasulfone) 12.5 g/ha, alone or as mixture (composition 1.139)): 65 | herbicidal activity against AMBEL found (AMBEL; application rate a.i.: I.1 31.25 g/ha, B.84 (paraquat-dichloride) 17.5 g/ha, alone or as mixture (composition 1.84)): 65 | herbicidal activity against AMBEL found (AMBEL; application rate a.i.: I.1 62.5 g/ha, B.100 (isoxaflutole) 12.5 g/ha, alone or as mixture (composition 1.100)): 90 | herbicidal activity against AMBEL found (AMBEL; applied alone at 31.25 g/ha a.i.): 75 | herbicidal activity against AMBEL found (AMBEL; single active, 15.62 g/ha a.i.): 0 | herbicidal activity against AMBEL found (AMBEL; single active, 15.625 g/ha a.i.): 0 | herbicidal activity against CHEAL found (CHEAL; a.i. g/ha: I.1 6.9, B.67 62.5, 20 days after treatment): 0% | herbicidal activity against CHEAL found (CHEAL; a.i. g/ha: I.1 15.6, B.190 62.5, 20 days after treatment): 70% | herbicidal activity against CHEAL found (CHEAL; a.i. g/ha: I.1 15.6, B.67 125, 20 days after treatment): 0% | herbicidal activity against CHEAL found (CHEAL; [1]): 85% | herbicidal activity against CHEAL found (CHEAL; [2]): 85% | herbicidal activity against CHEAL found (CHEAL; a.i. g/ha: I.1 31.25, B.67 125, 20 days after treatment): 65% | herbicidal activity against CHEAL found (CHEAL; a.i. g/ha: I.1 31.25, B.69 25, 20 days after treatment): 30% | herbicidal activity against CHEAL found (CHEAL; a.i. g/ha: I.1 31.25, B.76 225, 20 days after treatment): 30% | herbicidal activity against CHEAL found (CHEAL; a.i. g/ha: I.1 62.5, B.69 25, 20 days after treatment): 60% | herbicidal activity against CHEAL found (CHEAL; a.i. g/ha: I.1 62.5, B.76 225, 20 days after treatment): 60% | herbicidal activity against CHEAL found (CHEAL; a.i. g/ha: I.1 62.5, B.82 31.25, 20 days after treatment): 60% | pest or weed control at 31.25 g/ha (ECHCG; Echinochloa crus-galli, post-emergence, 480 h, I.1 alone 31.25 g/ha a.i., read-out: herbicidal activity against ECHCG found): 0% | pest or weed control at 62.5 g/ha (ECHCG; Echinochloa crus-galli, post-emergence, 480 h, I.1 alone 62.5 g/ha a.i., read-out: herbicidal activity against ECHCG found): 45% | pest or weed control at 31.25 g/ha (ECHCG; Echinochloa crus-galli, post-emergence, 480 h, 31.25 g/ha a.i., read-out: herbicidal activity against ECHCG found): 0% | pest or weed control at 31.25 g/ha (ECHCG; Echinochloa crus-galli, post-emergence, 480 h, I.1 31.25 g/ha a.i., read-out: herbicidal activity against ECHCG found): 70% | pest or weed control at 15.62 g/ha (ECHCG; Echinochloa crus-galli, post-emergence, 480 h, single active, 15.62 g/ha a.i., read-out: herbicidal activity against ECHCG found): 0% | pest or weed control at 31.25 g/ha (ECHCG; Echinochloa crus-galli, post-emergence, 480 h, single active, 31.25 g/ha a.i., read-out: herbicidal activity against ECHCG found): 10% | herbicidal activity against ECHCG found (ECHCG; I.1 15.62 g/ha, B.167 125 g/ha a.i.): 0 | herbicidal activity against ECHCG found (ECHCG; I.1 15.62 g/ha, B.95 1 g/ha a.i.): 10 | herbicidal activity against ECHCG found (ECHCG; I.1 31.25 g/ha, B.103 7.5 g/ha a.i.): 10 | herbicidal activity against ECHCG found (ECHCG; I.1 31.25 g/ha, B.167 125 g/ha a.i.): 10 | herbicidal activity against ECHCG found (ECHCG; I.1 62.5 g/ha, B.95 2 g/ha a.i.): 55 | herbicidal activity against ECHCH found (ECHCG; I.1 125 g/ha a.i.): 85 | herbicidal activity against ECHCG found (ECHCG; [2]): 30% | herbicidal activity against ECHCG found (ECHCG; a.i. g/ha: I.1 62.5, B.67 62.5, 20 days after treatment): 65% | herbicidal activity against ECHCG found (ECHCG; a.i. g/ha: I.1 62.5, B.79 25, 20 days after treatment): 65% | herbicidal activity against ECHCG found (ECHCG; application rate a.i.: I.1 31.25 g/ha, B.40 (imazethapyr) 7.5 g/ha, alone or as mixture (composition 1.40)): 0 | herbicidal activity against ECHCG found (ECHCG; application rate a.i.: I.1 250 g/ha, B.193 15 g/ha, alone or as mixture (composition 1.193)): 95 | pest or weed control at 31.25 g/ha (ERICA; I.1 alone 31.25 g/ha a.i.): 70% | pest or weed control at 62.5 g/ha (ERICA; I.1 alone 62.5 g/ha a.i.): 75% | pest or weed control at 125 g/ha (ERICA; I.1 alone 125 g/ha a.i.): 75% | pest or weed control at 31.25 g/ha (ERICA; I.1 31.25 g/ha a.i.): 50% | pest or weed control at 62.5 g/ha (ERICA; I.1 62.5 g/ha a.i.): 70% | pest or weed control at 125 g/ha (ERICA; I.1 125 g/ha a.i.): 65% | pest or weed control at 15.62 g/ha (ERICA; single active, 15.62 g/ha a.i.): 0%
